Source: PMC8654832 (Scientific Reports, 2021)
Where two headings read alike, the source gives them in different places.

What was measured:
hCK2α = biological target: T1, hCK2α (Homo sapiens, UniProt P68400); assay: In vitro inhibition of hCK2α, ADP-Glo kinase assay; format: biochemical; conditions: 10 μM ATP, 10 μM peptide […], 20 min at 30 °C
T1 construct: made in house; host or cells: Escherichia coli BL21(DE3), plasmid pET28
Procedure: The compound inhibitory activity was monitored based on the luminescence measured with the SpectraMax iD3 Multi-Mode Microplate Reader (Molecular Devices, San Jose, CA, USA), using the previously described method with the aid of ADP-Glo kinase assay (Promega, Walldorf, Germany)[35]. The measurements were carried in 96-well plate in volume of 25 μl in 20 mM Tris–HCl buffer (pH 7.5), containing 100 ng of hCK2α (1 μl), 10 μM CK2 substrate peptide […] (Biaffin GmbH & Co KG), 10 μM ATP, 20 mM MgCl2 and 2.5 μl of ligand serially diluted in DMSO. The reaction was initiated by adding the enzyme and kept going for 20 min at 30 °C.

[1] = test system: mitochondrial inner membrane potential (ΔΨ); assay: Mitochondrial inner membrane potential, Rhodamine 123 fluorescence quenching in isolated mitochondria; conditions: for ligand concentration at which the membrane potential is almost fully uncoupled / ligand concentration at which relative fluorescence c.a. 0.95 was reached: Rhodamine 123, yeast mitochondria; for ligand concentration required to recover 50% of the initial fluorescence drop: Rhodamine 123, yeast mitochondria energized with EtOH, normalized to CCCP; for ligand concentration at which relative fluorescence c.a. 0.95 was reached: 1 = fully uncoupled (CCCP)
Excerpt: In response to variations in ΔΨ this dye accumulates proportionally inside the mitochondrial matrix, where its fluorescence is quenched, thus fluorescence changes reflect the changes in the IM potential[33],[34]. […] All the data were normalized relative to the fluorescence intensity after addition CCCP (set to 1).
To quantify the effect of ligand addition we have compared the ligand concentrations required to recover 50% of the initial fluorescence drop (dotted line), i.e. the average of value after addition of EtOH and fully decoupled ΔΨ.
At the end of each experiment the carbonyl cyanide-m-chlorophenyl hydrazone (CCCP, the IM potential uncoupler) was added at 4 μM for the normalization.

[2] = Dynamic light scattering (DLS), aggregation in aqueous medium; format: physicochemical; conditions: 25 mM Tris–HCl pH 8, 0.5 M NaCl, 2% DMSO, 25 °C
Procedure: Experiments were carried out at 25 °C with the DynaPro NanoStar 192-DPN apparatus (Wyatt Technology) equipped with 661 nm laser. The autocorrelation function for the light scattered by solute placed in Eppendorf disposable cuvettes (50–2000 μl) was measured in the range of 0.5 μs– 0.1 s at solute concentration for which short-time ACF signal approached 0.2. Solutions with 2% (v/v) DMSO content were prepared in 25 mM Tris–HCl (pH 8, 0.5 M NaCl) filtered with 220 nm pore size syringe filter. All samples were centrifuged (9000 g) for 3 min immediately before the experiment.

[3] = test system: A-431 (epidermoid carcinoma); assay: Cell viability, MTT assay; conditions: read-out: Cell viability data, IC50
[4] = test system: HEPG2 (hepatocellular carcinoma); assay: Cell viability, MTT assay; conditions: read-out: Cell viability data, IC50
[5] = test system: HCT116 (colorectal carcinoma); assay: Cell viability, MTT assay; conditions: read-out: Cell viability data, IC50
[6] = test system: HCT116p53-/- (colorectal carcinoma); assay: Cell viability, MTT assay; conditions: 72 h, read-out: Cell viability data, IC50
[7] = biological target: T2, catalytic subunit of human protein kinase CK2 (hCK2α) (Homo sapiens, UniProt P68400); assay: Isothermal titration calorimetry (ITC), reverse mode
[8] = biological target: T2, catalytic subunit of human protein kinase CK2 (hCK2α); assay: Microscale thermophoresis (MST) pseudo-titration; format: binding; design: made in house; host or cells: Escherichia coli BL21(DE3), plasmid pET28
Procedure: Samples of protein (50 nM in 25 mM Hepes buffer pH 8 with 0.5 M NaCl and 1%DMSO content v/v) labeled with Monolith His-Tag Labeling Kit RED-tris-NTA kit (NanoTemper Technologies) were prepared with varying ligand concentration according to previously described protocol. The measurements were performed using Monolith NT.115 (NanoTemper Technologies) apparatus in standard capillaries (Nanotemper Technologies). For each ligand six independent pseudo-titration experiments, each with 16 ligand dilutions, were performed. […] The model of two independent binding sites, implemented in origin, has been already described and tested. It is worth noting that the used method of data treatment goes beyond the standard MST software capabilities.

[9] = biological target: T2, catalytic subunit of human protein kinase CK2 (hCK2α); design: made in house; host or cells: Escherichia coli BL21(DE3), plasmid pET28; conditions: DSF, binding to hCK2α, cited from earlier work
[10] = second, weak site (solvent exposed region at alpha/beta interface), read-out: Kd2
[11] = strongly binding site (ATP-binding site), pH 8, 0.5 M NaCl, 1% DMSO, read-out: Kd1

T1 sequence (P68400 whole entry): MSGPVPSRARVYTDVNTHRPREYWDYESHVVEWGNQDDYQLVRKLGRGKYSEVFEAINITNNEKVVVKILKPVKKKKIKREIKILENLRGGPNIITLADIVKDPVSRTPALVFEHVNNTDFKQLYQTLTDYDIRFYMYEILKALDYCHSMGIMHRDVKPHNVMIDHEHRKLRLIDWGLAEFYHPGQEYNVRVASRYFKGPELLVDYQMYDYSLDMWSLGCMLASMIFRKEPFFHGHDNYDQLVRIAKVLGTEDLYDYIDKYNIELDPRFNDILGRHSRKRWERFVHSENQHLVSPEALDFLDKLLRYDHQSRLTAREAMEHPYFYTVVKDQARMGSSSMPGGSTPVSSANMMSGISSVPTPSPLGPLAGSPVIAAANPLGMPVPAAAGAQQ
T2 sequence (P68400 whole entry): as above

For Brc1cc2nn[nH]c2cc1Br [HBBH, 5,6-dibromo-1H-benzotriazole, reference compound], the IC50 (hCK2α) was 1190 ± 530 nM, the “ligand concentration at which the membrane potential is almost fully uncoupled” value [1] was roughly 15 µM and the “ligand concentration required to recover 50% of the initial fluorescence drop” value [1] was greater than 5 µM. For the same molecule, the “ligand concentration at which relative fluorescence c.a. 0.95 was reached” value [1] was roughly 12 µM, the “solute concentration at which the similar ACF distribution (nano-aggregates, radius 50–100 nm) was observed” value [2] was 160 µM and the IC50 ([3]; Homo sapiens, A-431, 72 h) was 12000 ± 2000 nM. The IC50 ([4]; Homo sapiens, HepG2, 72 h) was 18000 ± 4000 nM, the IC50 ([5]; Homo sapiens, HCT-116, 72 h) was 19000 ± 6000 nM and the IC50 ([6]; Homo sapiens) was 13000 ± 3000 nM. The Kd [7] was 34 ± 4 nM, the Kd [8, 10] was 327 ± 95 nM and the Kd [8, 11] was 29 ± 13 nM. The ΔTm ([9]; literature data ref 18) was 7.4 ± 0.1[18] K.
With Ic1cc2nn[nH]c2cc1I [HIIH, 5,6-diiodo-1H-benzotriazole] the IC50 (hCK2α) was 780 ± 290 nM, the “ligand concentration at which the membrane potential is almost fully uncoupled” value [1] was roughly 15 µM and the “ligand concentration required to recover 50% of the initial fluorescence drop” value [1] was greater than 5 µM. For the same molecule, the “ligand concentration at which relative fluorescence c.a. 0.95 was reached” value [1] was roughly 12 µM, the IC50 ([3]; Homo sapiens, A-431, 72 h) was 5300 ± 700 nM and the IC50 ([4]; Homo sapiens, HepG2, 72 h) was 3300 ± 400 nM. For the same molecule, the IC50 ([5]; Homo sapiens, HCT-116, 72 h) was 6100 ± 1300 nM, the IC50 ([6]; Homo sapiens) was 9400 ± 1400 nM and the Kd [7] was 22 ± 4 nM. For the same molecule, the Kd [8, 10] was 374 ± 83 nM, the Kd [8, 11] was 15 ± 7 nM and the ΔTm ([9]; literature data ref 20) was 8.3 ± 0.1[20] K.
For Brc1c(I)c(I)c(Br)c2[nH]nnc12 [BIIB, 4,7-dibromo-5,6-diiodo-1H-benzotriazole], the IC50 (hCK2α) was 230 ± 150 nM, the “ligand concentration required to recover 50% of the initial fluorescence drop” value [1] was “less than 2 µM” and the “ligand concentration at which relative fluorescence c.a. 0.95 was reached” value [1] was roughly 4 µM. The “solute concentration at which the similar ACF distribution (nano-aggregates, radius 50–100 nm) was observed” value [2] was 40 µM, the IC50 ([3]; Homo sapiens, A-431, 72 h) was 2200 ± 300 nM and the IC50 ([4]; Homo sapiens, HepG2, 72 h) was 1500 ± 300 nM. It also gave an IC50 ([5]; Homo sapiens, HCT-116, 72 h) of 1800 ± 300 nM, an IC50 ([6]; Homo sapiens) of 2500 ± 200 nM and a Kd [7] of 1.3 ± 1.4 nM. For the same molecule, the ΔS1 ([7]; ITC, 25 °C, strongly binding site) was 123 ± 10 J/mol/K, the ΔS2 ([7]; ITC, second site) was 93 ± 5 J/mol/K and the Kd ([7]; read-out: Kd2, ITC, second site (solvent exposed region at alpha/beta interface)) was 82 ± 42 nM. For the same molecule, the Kd [8, 10] was 43 ± 22 nM, the Kd [8, 11] was 3 ± 6 nM and the ΔTm ([9]; literature data ref 20) was 10.8 ± 0.1[20] K.
Work on Brc1c(Br)c(Br)c2[nH]nnc2c1Br [TBBt, 4,5,6,7-tetrabromo-1H-benzotriazole] yielded an IC50 ([3]; Homo sapiens, A-431, 72 h) of 7800 ± 1200 nM, an IC50 ([4]; Homo sapiens, HepG2, 72 h) of 13000 ± 2000 nM and an IC50 ([5]; Homo sapiens, HCT-116, 72 h) of 23000 ± 9000 nM. It also gave an IC50 ([6]; Homo sapiens) of 48000 ± 18000 nM.
Work on N.N.[Cl][Pt][Cl] [cisPt, cisplatin] yielded an IC50 ([3]; A-431, MTT, 72 h, fitted to restricted low-concentration data) of 2020 ± 60 nM, an IC50 ([4]; HEPG2, MTT, 72 h, fitted to restricted low-concentration data) of 2430 ± 140 nM and an IC50 ([5]; HCT116, MTT, 72 h, fitted to restricted low-concentration data) of 4700 ± 600 nM. It also gave an IC50 ([6]; HCT116p53-/-, MTT, fitted to restricted low-concentration data) of 2940 ± 130 nM.
